Results: ChEMBL document CHEMBL1128477, “5,7-dihydro-3-[2-[1-(phenylmethyl)-4-piperidinyl]ethyl]-6H- pyrrolo[3,2-f]-1,2-benzisoxazol-6-one: a potent and centrally-selective inhibitor of acetylcholinesterase with an improved margin of safety” (J Med Chem, 1995)

Columns and labels:
Acetylcholinesterase = Acetylcholinesterase (Homo sapiens, UniProt P22303)
Description: In vitro inhibition of Acetylcholinesterase from human erythrocytes

Cholinesterase = Cholinesterase (Homo sapiens, UniProt P06276)
Description: In vitro inhibition of Butyrylcholinesterase from human erythrocytes

[1] = Safety index is the ratio of acute lethality LD50 to extracellular AchE ED50.; assay type: toxicity; conditions: read-out: Safety index
Rattus norvegicus [2] = species on record: Rattus norvegicus; assay: animal or person; conditions: 3 h
Rattus norvegicus [3] = species on record: Rattus norvegicus; assay: animal or person
Description: ED50 for salivation was defined as the dose required to produce a level 2 rating on a 0-4 point scale after treatment.

Sequence of Cholinesterase (P06276 whole entry): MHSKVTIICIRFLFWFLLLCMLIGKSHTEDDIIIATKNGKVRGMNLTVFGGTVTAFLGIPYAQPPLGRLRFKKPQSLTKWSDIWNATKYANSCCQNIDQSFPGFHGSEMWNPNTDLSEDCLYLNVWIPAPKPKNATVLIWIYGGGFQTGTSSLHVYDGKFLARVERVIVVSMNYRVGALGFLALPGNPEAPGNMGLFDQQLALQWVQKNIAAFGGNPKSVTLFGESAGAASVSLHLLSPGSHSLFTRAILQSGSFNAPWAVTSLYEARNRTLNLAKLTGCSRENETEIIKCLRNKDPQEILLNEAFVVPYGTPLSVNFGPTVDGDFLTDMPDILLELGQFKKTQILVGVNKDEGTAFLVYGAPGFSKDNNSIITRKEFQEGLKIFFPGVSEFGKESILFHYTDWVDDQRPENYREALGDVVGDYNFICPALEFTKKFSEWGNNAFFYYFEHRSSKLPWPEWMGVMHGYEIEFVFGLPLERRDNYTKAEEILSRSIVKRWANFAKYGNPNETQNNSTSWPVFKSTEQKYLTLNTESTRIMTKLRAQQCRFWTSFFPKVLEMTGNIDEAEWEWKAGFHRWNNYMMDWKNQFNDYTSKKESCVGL
Sequence of Acetylcholinesterase (P22303 whole entry): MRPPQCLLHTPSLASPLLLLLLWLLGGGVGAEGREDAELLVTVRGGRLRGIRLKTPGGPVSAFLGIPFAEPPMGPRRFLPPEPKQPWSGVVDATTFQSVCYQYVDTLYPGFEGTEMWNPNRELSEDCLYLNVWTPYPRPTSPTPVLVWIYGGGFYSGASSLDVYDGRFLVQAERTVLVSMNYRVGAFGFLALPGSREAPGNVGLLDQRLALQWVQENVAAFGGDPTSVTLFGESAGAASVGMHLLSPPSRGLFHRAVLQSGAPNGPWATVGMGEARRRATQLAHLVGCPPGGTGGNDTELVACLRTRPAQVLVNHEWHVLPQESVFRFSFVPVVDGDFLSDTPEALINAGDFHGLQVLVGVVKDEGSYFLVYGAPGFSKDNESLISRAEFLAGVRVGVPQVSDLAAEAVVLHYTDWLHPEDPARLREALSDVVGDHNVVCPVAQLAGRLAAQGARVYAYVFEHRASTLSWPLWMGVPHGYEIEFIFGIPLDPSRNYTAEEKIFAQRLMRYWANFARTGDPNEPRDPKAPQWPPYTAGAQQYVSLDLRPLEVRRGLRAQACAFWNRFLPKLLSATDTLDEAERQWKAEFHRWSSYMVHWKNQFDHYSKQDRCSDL
Description for in vivo: LD50 for actute lethality is defined as the dose that resulted in the death of 50% of the animals 1 hr after treatment.

| Compound | IC50 (Acetylcholinesterase) [nM] | IC50 (Cholinesterase) [nM] | selectivity ratio [1] | LD50 at 1 h (in vivo) [mg/kg] | ED50 (Rattus norvegicus [2]) [mg/kg] | ED50 (Rattus norvegicus [3]) [mg/kg] |
| --- | --- | --- | --- | --- | --- | --- |
| O=C1Cc2cc3onc(CCC4CCN(Cc5ccccc5)CC4)c3cc2N1 | 0.95 | 3900 |  |  |  |  |
| O=C1CCc2cc3c(CCC4CCN(Cc5ccccc5)CC4)noc3cc2N1 | 0.57 | 4000 |  |  |  |  |
| CC(=O)Nc1ccc2c(CCC3CCN(Cc4ccccc4)CC3)noc2c1 |  | 9000 |  |  |  |  |
| CN1C(=O)Cc2cc3c(CCC4CCN(Cc5ccccc5)CC4)noc3cc21 | 0.48 | 4500 |  |  |  |  |
| O=C1Cc2c(ccc3c(CCC4CCN(Cc5ccccc5)CC4)noc23)N1 | 3.6 | 2200 |  |  |  |  |
| O=C(O)/C=C\C(=O)O.O=C1Cc2cc3c(CCC4CCN(Cc5ccccc5)CC4)noc3cc2N1 [ICOPEZIL MALEATE] | 0.33 | 7200 | 105 | 42 | 0.4 | 26 |
